Results on five compounds are retold here after patent publication US10168342B2, “Lipid probes and uses thereof” (THE SCRIPPS RESEARCH INSTITUTE, priority 2015, dated 2019).

SMILES strings stand for the structures. Read-outs that look alike come from different tables or passages of the source.

Experiment [1] concerns the target T1, AEA-DA lipid probe targets in Neuro2a cells (Mus musculus, UniProt Q9WTQ8).
T1 sequence (Q9WTQ8 1-209): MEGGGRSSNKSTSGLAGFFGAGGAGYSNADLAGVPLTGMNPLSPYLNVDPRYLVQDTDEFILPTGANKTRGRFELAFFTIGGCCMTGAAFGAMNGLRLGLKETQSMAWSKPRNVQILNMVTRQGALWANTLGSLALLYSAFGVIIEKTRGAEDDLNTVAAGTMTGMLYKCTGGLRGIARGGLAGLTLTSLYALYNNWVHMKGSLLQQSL

Experiment [2] addresses T2, AEA-DA lipid probe targets in Neuro2a cells (Mus musculus, UniProt Q8VCB1).
T2 sequence (Q8VCB1 1-673): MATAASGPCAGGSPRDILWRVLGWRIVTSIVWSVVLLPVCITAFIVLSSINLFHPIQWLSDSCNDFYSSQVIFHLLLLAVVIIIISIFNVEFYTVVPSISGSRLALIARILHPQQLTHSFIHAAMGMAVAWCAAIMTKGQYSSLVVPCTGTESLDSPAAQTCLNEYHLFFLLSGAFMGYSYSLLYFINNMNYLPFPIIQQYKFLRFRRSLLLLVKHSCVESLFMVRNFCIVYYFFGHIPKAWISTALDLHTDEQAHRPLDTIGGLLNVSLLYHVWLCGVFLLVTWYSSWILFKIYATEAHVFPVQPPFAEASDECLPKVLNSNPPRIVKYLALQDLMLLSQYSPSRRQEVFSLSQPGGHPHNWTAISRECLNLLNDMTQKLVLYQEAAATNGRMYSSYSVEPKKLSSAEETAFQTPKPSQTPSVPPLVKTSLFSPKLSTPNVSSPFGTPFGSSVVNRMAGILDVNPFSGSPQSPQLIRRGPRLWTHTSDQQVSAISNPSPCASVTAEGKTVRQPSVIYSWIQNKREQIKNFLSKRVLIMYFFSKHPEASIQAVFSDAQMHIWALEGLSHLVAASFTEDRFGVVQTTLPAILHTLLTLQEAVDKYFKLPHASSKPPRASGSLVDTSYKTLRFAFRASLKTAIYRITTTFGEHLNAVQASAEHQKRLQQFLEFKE
The conditions noted are these: for SILAC ratio, TMEM48 (Q8VCB1): Neuro2a cells, AEA-DA probe.

In experiment [3] the target is AEA-DA lipid probe targets in Neuro2a cells (Mus musculus, UniProt Q9R1P3).
AEA-DA lipid probe targets in Neuro2a cells (Mus musculus, UniProt Q9R1P3), sequence (Q9R1P3 whole entry): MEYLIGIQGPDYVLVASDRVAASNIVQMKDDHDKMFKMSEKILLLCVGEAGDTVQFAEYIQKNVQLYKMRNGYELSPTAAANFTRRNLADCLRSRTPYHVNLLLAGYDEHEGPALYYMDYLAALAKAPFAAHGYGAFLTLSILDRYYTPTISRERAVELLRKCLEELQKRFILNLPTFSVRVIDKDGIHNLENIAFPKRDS
Experiment [4] has as its target T3, AEA-DA lipid probe targets in Neuro2a cells (Mus musculus, UniProt P00375).
T3 sequence (P00375 1-187): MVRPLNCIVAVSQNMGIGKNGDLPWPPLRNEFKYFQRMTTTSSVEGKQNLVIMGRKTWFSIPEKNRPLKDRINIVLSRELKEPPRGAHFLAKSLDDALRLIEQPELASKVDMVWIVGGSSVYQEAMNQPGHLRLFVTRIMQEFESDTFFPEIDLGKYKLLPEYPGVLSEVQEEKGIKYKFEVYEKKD

Experiment [5] addresses T4, AEA-DA lipid probe targets in Neuro2a cells (Mus musculus, UniProt Q9CQF9).
T4 sequence (Q9CQF9 29-505): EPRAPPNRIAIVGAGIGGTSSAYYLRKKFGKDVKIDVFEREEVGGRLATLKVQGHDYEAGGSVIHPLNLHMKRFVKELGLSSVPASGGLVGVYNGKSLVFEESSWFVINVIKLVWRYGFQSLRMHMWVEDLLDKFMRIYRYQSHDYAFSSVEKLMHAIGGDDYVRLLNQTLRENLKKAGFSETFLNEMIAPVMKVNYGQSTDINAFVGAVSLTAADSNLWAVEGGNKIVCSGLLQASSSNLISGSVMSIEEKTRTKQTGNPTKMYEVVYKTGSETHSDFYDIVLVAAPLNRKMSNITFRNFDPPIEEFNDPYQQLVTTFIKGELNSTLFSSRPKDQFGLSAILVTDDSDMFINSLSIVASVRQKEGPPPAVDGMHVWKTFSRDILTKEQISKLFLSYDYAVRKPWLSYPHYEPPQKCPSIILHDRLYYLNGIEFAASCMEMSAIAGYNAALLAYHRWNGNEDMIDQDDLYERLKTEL

The target of experiment [6] is T5, AEA-DA lipid probe targets in Neuro2a cells (Mus musculus, UniProt Q8BMG8).
T5 sequence (Q8BMG8 1-316): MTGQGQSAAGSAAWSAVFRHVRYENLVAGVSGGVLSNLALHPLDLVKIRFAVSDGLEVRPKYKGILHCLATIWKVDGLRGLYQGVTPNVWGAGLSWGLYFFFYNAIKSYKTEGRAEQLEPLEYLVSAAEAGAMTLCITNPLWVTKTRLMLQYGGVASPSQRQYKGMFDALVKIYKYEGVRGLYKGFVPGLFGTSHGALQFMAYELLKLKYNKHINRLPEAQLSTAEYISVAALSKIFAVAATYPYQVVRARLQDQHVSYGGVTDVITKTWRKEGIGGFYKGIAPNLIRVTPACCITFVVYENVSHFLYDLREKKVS

For experiment [7], the target named is AEA-DA lipid probe targets in Neuro2a cells (Mus musculus, UniProt P52019). The conditions noted are these: for SILAC ratio, SQLE (Q14534): Neuro2a cells, AEA-DA probe.
AEA-DA lipid probe targets in Neuro2a cells (Mus musculus, UniProt P52019), sequence (P52019 whole entry): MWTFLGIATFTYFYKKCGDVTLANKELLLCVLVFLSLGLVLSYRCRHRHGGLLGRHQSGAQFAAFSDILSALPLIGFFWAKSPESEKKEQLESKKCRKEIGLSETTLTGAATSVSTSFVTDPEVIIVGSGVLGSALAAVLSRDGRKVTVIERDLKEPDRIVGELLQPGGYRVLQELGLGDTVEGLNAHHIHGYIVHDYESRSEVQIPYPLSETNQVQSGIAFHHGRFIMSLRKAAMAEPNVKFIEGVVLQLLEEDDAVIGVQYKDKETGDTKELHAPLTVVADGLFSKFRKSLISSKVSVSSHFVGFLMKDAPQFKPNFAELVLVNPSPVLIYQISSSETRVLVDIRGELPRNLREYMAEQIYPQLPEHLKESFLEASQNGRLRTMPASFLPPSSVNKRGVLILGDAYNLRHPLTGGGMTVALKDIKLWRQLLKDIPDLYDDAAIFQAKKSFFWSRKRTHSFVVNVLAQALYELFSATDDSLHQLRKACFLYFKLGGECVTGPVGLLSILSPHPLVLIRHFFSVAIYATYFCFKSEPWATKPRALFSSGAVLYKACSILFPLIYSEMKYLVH
Experiment [8] concerns the target T6, AEA-DA lipid probe targets in Neuro2a cells (Mus musculus, UniProt Q9D938).
T6 sequence (Q9D938 97-188): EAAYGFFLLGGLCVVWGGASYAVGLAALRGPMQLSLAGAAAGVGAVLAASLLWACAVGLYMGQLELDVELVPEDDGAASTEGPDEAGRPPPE

Experiment [9] concerns the target AEA-DA lipid probe targets in Neuro2a cells (Mus musculus, UniProt P97300). The conditions noted are these: competitor 25 μM; for SILAC ratio, NPTN (Q9Y639): Neuro2a cells, AEA-DA probe.

AEA-DA lipid probe targets in Neuro2a cells (Mus musculus, UniProt P97300), sequence (P97300 29-397): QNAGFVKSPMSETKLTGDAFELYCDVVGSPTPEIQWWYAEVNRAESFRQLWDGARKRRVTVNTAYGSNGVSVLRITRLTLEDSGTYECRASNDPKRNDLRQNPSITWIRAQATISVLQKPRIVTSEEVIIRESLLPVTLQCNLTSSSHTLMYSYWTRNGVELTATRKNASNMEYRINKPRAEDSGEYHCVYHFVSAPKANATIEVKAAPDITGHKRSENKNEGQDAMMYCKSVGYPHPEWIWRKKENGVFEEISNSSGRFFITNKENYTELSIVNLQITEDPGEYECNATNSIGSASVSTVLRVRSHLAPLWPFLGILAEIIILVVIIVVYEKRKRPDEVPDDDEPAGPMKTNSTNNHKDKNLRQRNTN

With `CCCCC/C=C\C/C=C\C/C=C\C/C=C\CCCC(=O)NCCO` [AEA, anandamide, reference compound], in experiment [1] (competitor 200 μM), the “SILAC ratio, Timm23” value is given as 1.8. Further, in [2] (competitor 200 μM), the “SILAC ratio, TMEM48 (Q8VCB1)” value is given as 1.9 and the “SILAC ratio, Tmem48” value worked out at 1.9. The “SILAC ratio Psmb2” value in [3] (competitor 200 μM) was 1.3. Also, the “SILAC ratio Dhfr” value in [4] (competitor 200 μM) came out at 1.2. In experiment [5] (competitor 200 μM), the “SILAC ratio, Pcyox1” value worked out at 1.7. The “SILAC ratio, Slc25a32” value in [6] (competitor 200 μM) is recorded as 1.5. In experiment [7] (competitor 200 μM), the “SILAC ratio, SQLE (Q14534)” value amounted to 1.9 and the “SILAC ratio Sqle” value was found to be 1.9.
On to `O=C(/C=C/c1cccnc1)NCCCCC1CCN(C(=O)c2ccccc2)CC1` [FK-866, reference compound], for which the “SILAC ratio, Timm23” value in experiment [1] (competitor 25 μM) is given as 1.1. In addition, in experiment [8] (competitor 25 μM), the “SILAC ratio, Tmem160” value is 1.2. Moreover, in [9], the “SILAC ratio, NPTN (Q9Y639)” value worked out at 1.2 and the “SILAC ratio, Nptn” value is 1.2. Moreover, in [2] (competitor 25 μM), the “SILAC ratio, TMEM48 (Q8VCB1)” value turned out to be 1.2 and the “SILAC ratio, Tmem48” value was determined as 1.2. In addition, in [3] (competitor 25 μM), the “SILAC ratio Psmb2” value amounted to 1.7. For the same compound, the “SILAC ratio Dhfr” value in experiment [4] (competitor 25 μM) was found to be 1.2. In addition, the “SILAC ratio, Pcyox1” value in [5] (competitor 25 μM) was 1.2. Besides, the “SILAC ratio, Slc25a32” value in experiment [6] (competitor 25 μM) stood at 1.1. In addition, in experiment [7] (competitor 25 μM), the “SILAC ratio, SQLE (Q14534)” value came to 1.1 and the “SILAC ratio Sqle” value is on record as 1.1.
Regarding `CN1CCN(C(=O)c2c(-c3ccccc3)c3cc([N+](=O)[O-])ccc3n2C)CC1` [KML110, (1-Methyl-5-nitro-3-phenyl-1H-indol-2-yl)(4-methylpiperazin-1-yl)methanone], the “SILAC ratio, Timm23” value in experiment [1] (competitor 25 μM) is listed as 1.3. In addition, the “SILAC ratio, Tmem160” value in [8] (competitor 25 μM) was found to be 1.3. Further, the “SILAC ratio, Tmem48” value in experiment [2] (competitor 25 μM) stood at 1.6. In addition, the “SILAC ratio Psmb2” value in experiment [3] (competitor 25 μM) is given as 1.7. The “SILAC ratio Dhfr” value in [4] (competitor 25 μM) is 1.4. The “SILAC ratio, Pcyox1” value in experiment [5] (competitor 25 μM) was determined as 1.5. In [6] (competitor 25 μM), the “SILAC ratio, Slc25a32” value is 1.5. In addition, in [7] (competitor 25 μM), the “SILAC ratio Sqle” value is recorded as 1.3.
For the compound `CN1CCN(C(=O)c2[nH]c3ccc([N+](=O)[O-])cc3c2-c2ccccc2)CC1` [MJN228, (4-Methylpiperazin-1-yl)(5-nitro-3-phenyl-1H-indol-2-yl)methanone], the “SILAC ratio, Timm23” value in experiment [1] (competitor 10 μM) is 1.0; in experiment [1] (competitor 25 μM) it was 1.2; in [1] (competitor 50 μM), 1.3; in experiment [1] (competitor 100 μM), 1.5. The “SILAC ratio, Tmem160” value in experiment [8] (competitor 10 μM) is on record as 1.2; in experiment [8] (competitor 25 μM), 1.5; in [8] (competitor 100 μM) it was 3.5. Moreover, in [9], the “SILAC ratio, NPTN (Q9Y639)” value was 1.9. The “SILAC ratio, Nptn” value in [9] is 1.9. Also, the “SILAC ratio, TMEM48 (Q8VCB1)” value in experiment [2] (competitor 25 μM) turned out to be 1.5. For the same compound, the “SILAC ratio, Tmem48” value in experiment [2] (competitor 10 μM) was 1.3; in [2] (competitor 25 μM), 1.5; in experiment [2] (competitor 50 μM) it was 1.9; in experiment [2] (competitor 100 μM), 2.8. Besides, the “SILAC ratio Psmb2” value in [3] (competitor 10 μM) is on record as 1.3; in experiment [3] (competitor 25 μM) it was 1.4; in experiment [3] (competitor 50 μM), 1.2; in experiment [3] (competitor 100 μM), 2.2. For the same compound, the “SILAC ratio Dhfr” value in experiment [4] (competitor 10 μM) came to 2.0; in experiment [4] (competitor 25 μM) it was 1.6; in experiment [4] (competitor 50 μM) it was 0.4; in experiment [4] (competitor 100 μM), 1.5. Besides, the “SILAC ratio, Pcyox1” value in experiment [5] (competitor 10 μM) amounted to 1.2; in [5] (competitor 25 μM), 1.4; in experiment [5] (competitor 50 μM) it was 1.6; in [5] (competitor 100 μM), 2.2. Moreover, the “SILAC ratio, Slc25a32” value in experiment [6] (competitor 10 μM) came to 1.5; in experiment [6] (competitor 25 μM), 1.5; in [6] (competitor 50 μM), 1.5; in experiment [6] (competitor 100 μM) it was 1.9. Besides, the “SILAC ratio, SQLE (Q14534)” value in experiment [7] (competitor 25 μM) is 1.5. For the same compound, the “SILAC ratio Sqle” value in [7] (competitor 10 μM) is 1.3; in experiment [7] (competitor 25 μM) it was 1.5; in [7] (competitor 100 μM) it was 2.1.
Take `C=CCN(C)CCCCCCOc1ccc(C(=O)c2ccc(Br)cc2)c(F)c1` [Ro 48-8071, reference compound]: the “SILAC ratio, Timm23” value in experiment [1] (competitor 25 μM) is recorded as 1.0. Moreover, the “SILAC ratio, Tmem160” value in [8] (competitor 25 μM) was determined as 1.2. Moreover, in experiment [9], the “SILAC ratio, NPTN (Q9Y639)” value was found to be 2.0 and the “SILAC ratio, Nptn” value is 2.0. Moreover, in experiment [2] (competitor 25 μM), the “SILAC ratio, TMEM48 (Q8VCB1)” value came to 1.1 and the “SILAC ratio, Tmem48” value is 1.1. The “SILAC ratio Psmb2” value in experiment [3] (competitor 25 μM) was found to be 1.0. The “SILAC ratio Dhfr” value in [4] (competitor 25 μM) was 0.8. Moreover, in [5] (competitor 25 μM), the “SILAC ratio, Pcyox1” value turned out to be 1.8. Also, the “SILAC ratio, Slc25a32” value in experiment [6] (competitor 25 μM) is 1.1. Also, in experiment [7] (competitor 25 μM), the “SILAC ratio, SQLE (Q14534)” value worked out at 1.0 and the “SILAC ratio Sqle” value came to 1.0.
